According to patent publication US7498441B2, “Biaryltetrahydroisoquinoline piperidines as selective MCH receptor antagonists for the treatment of obesity and related disorders” (Schering Corporation, priority 2003, dated 2009):

Target: T1, MCH receptor (Homo sapiens, UniProt Q99705)
T1 construct: expressed in transfected cells; host or cells: CHO cells
Assay: MCH Receptor Binding Assay ([125I]-MCH, SPA, membranes from CHO cells expressing the MCH receptor)
Conditions: MCH Receptor Activity (Preferred Compounds); dissociation constants; read-out: Ave KiMCH
Procedure: Membranes from CHO cells expressing the MCH receptor were prepared by lysing cells with 5 mM HEPES for 15 min at 4 C. Cell lysates were centrifuged ([…], 15 min) and the pellet was resuspended in 5 mM HEPES. For each 96-well plate (Microlite, Dynex Technologies), 1 mg of cell membranes were incubated with 10 mg of wheat germ agglutinin SPA beads (Amersham) for 5 min at 4 C in a volume of 10 ml of binding buffer (25 mM HEPES, 10 mM MGCl2, 10 mM NaCl, 5 mM MnCl2, 0.1% BSA). The membrane/bead mixture was centrifuged (1500×g, 3.5 min), the supernatant was aspirated, and the pellet was resuspended in 10 ml binding buffer. The centrifugation, aspiration and resuspension were then repeated. The membrane/bead mixture (100 μl) was then added to 96-well plates containing 50 μl of 500 pM [^125I]-MCH (NEN) and […] of the appropriate concentration of compound (4× the desired final concentration). Nonspecific binding was determined by including 1 μM MCH in the binding reaction. The binding reaction was incubated at room temperature for 2 h. Plates were then analyzed in a TOPCOUNT microplate scintillation counter (Packard). Data was analyzed and Ki values for the compounds of Formula 1 were determined using GraphPad Prim.

T1 sequence (Q99705 whole entry): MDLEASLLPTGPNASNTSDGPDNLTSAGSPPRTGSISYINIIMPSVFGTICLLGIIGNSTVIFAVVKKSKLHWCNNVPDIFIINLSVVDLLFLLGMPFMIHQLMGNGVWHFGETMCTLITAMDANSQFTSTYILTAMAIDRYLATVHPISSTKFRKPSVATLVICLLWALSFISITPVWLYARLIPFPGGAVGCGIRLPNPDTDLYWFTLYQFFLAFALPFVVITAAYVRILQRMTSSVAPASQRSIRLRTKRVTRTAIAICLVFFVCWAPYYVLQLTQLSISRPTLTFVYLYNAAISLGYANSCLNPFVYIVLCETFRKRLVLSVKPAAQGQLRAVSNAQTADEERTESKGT

`N#Cc1cccc(-c2ccc3c(c2)CCN(CC(=O)Nc2cc(Cl)cc(Cl)c2)C3C2CCN(C3CCCC3)CC2)c1` (stereo not shown) [Example 1] and `N#Cc1cccc(-c2ccc3c(c2)CCN(CC(=O)Nc2cc(Cl)cc(Cl)c2)C3C2CCN(C3CCCCC3)CC2)c1` (stereo not shown) [Example 32] are within 1.5-fold of each other in Ki: 0.0112 µM for the first, 0.01 µM for the second.

`O=C(CN1CCc2cc(-c3ccncc3)ccc2C1C1CCN(C2CCCC2)CC1)Nc1cc(Cl)cc(Cl)c1` (stereo not shown) [Example 12] and `O=C(CN1CCc2cc(-c3cccnc3)ccc2C1C1CCN(C2CCCC2)CC1)Nc1cc(Cl)cc(Cl)c1` (stereo not shown) [Example 16] are within 1.5-fold of each other in Ki: 0.024 µM for the first, 0.023 µM for the second.

First: CN1CCC(C2c3ccc(-c4cccc(C#N)c4)cc3CCN2CC(=O)Nc2cc(Cl)cc(Cl)c2)CC1 (stereo not shown) [Example 17]
Second: N#Cc1cccc(-c2ccc3c(c2)CCN(CC(=O)Nc2cc(Cl)cc(Cl)c2)C3C2CCN(CC3CC3)CC2)c1 (stereo not shown) [Example 28]
The Ki of the first is 2.4-fold higher: 0.022 µM for the first, 0.0093 µM for the second. The second binds more tightly here.

`N#Cc1cccc(-c2ccc3c(c2)CCN(CC(=O)Nc2cc(Cl)cc(Cl)c2)C3C2CCN(Cc3ccccc3)CC2)c1` (stereo not shown) [Example 19] and `COc1ccccc1CN1CCC(C2c3ccc(-c4cccc(C#N)c4)cc3CCN2CC(=O)Nc2cc(Cl)cc(Cl)c2)CC1` (stereo not shown) [Example 27] are within 1.5-fold of each other in Ki: 0.023 µM for the first, 0.016 µM for the second.

Going from `N#Cc1cccc(-c2ccc3c(c2)CCN(CC(=O)Nc2cc(Cl)cc(Cl)c2)C3C2CCNCC2)c1` (stereo not shown) [Example 20] to `N#Cc1cccc(-c2ccc3c(c2)CCN(CC(=O)Nc2cc(Cl)cc(Cl)c2)C3C2CCN(C3CCC3)CC2)c1` (stereo not shown) [Example 29], the Ki falls from 0.026 µM to 0.015 µM (1.7-fold). The second binds more tightly here.

Compared with `N#Cc1cccc(-c2ccc3c(c2)CCN(CC(=O)Nc2cc(Cl)cc(Cl)c2)C3C2CCN(CCCCCO)CC2)c1` (stereo not shown) [Example 21], `N#Cc1cccc(-c2ccc3c(c2)CCN(CC(=O)Nc2cc(Cl)cc(Cl)c2)C3C2CCN(Cc3ccoc3)CC2)c1` (stereo not shown) [Example 26] is 2.1-fold higher in Ki: 0.0068 µM for the first, 0.014 µM for the second. The first binds more tightly here.

Going from `N#Cc1cccc(-c2ccc3c(c2)CCN(CC(=O)Nc2cc(Cl)cc(Cl)c2)C3C2CCN(C3CCCCCC3)CC2)c1` (stereo not shown) [Example 22] to `N#Cc1cccc(-c2ccc3c(c2)CCN(CC(=O)Nc2cc(Cl)cc(Cl)c2)C3C2CCN(C3CCOCC3)CC2)c1` (stereo not shown) [Example 24], the Ki falls from 0.01 µM to 0.0064 µM (1.6-fold).

`N#Cc1cccc(-c2ccc3c(c2)CCN(CC(=O)Nc2cc(Cl)cc(Cl)c2)C3C2CCN(C3CCSC3)CC2)c1` (stereo not shown) [Example 25] gave a Ki of 0.007 µM.

Same assay, conditions: MCH Receptor Antagonist Activity; rated A/B/C; read-out: Av. MCH Ki

First: O=C(CN1CCc2cc(-c3cccc(C(F)(F)F)c3)ccc2C1C1CCN(C2CCCC2)CC1)Nc1cc(Cl)cc(Cl)c1 (stereo not shown) [Example 1]
Second: O=C(CN1CCc2cc(-c3cccc(OC(F)(F)F)c3)ccc2C1C1CCN(C2CCCC2)CC1)Nc1cc(Cl)cc(Cl)c1 (stereo not shown) [Example 8]
The Ki of the first is higher: 0.1 to 0.5 µM for the first, 0.001 to 0.1 µM for the second.

First: O=C(CN1CCc2cc(-c3ccccc3)ccc2C1C1CCN(C2CCCC2)CC1)Nc1cc(Cl)cc(Cl)c1 (stereo not shown) [Example 2]
Second: O=C(CN1CCc2cc(-c3cccc(F)c3)ccc2C1C1CCN(C2CCCC2)CC1)Nc1cc(Cl)cc(Cl)c1 (stereo not shown) [Example 4]
The Ki of the first is higher: 0.1 to 0.5 µM for the first, 0.001 to 0.1 µM for the second. The second binds more tightly here.

Compared with `N#Cc1ccc(-c2ccc3c(c2)CCN(CC(=O)Nc2cc(Cl)cc(Cl)c2)C3C2CCN(C3CCCC3)CC2)cc1` (stereo not shown) [Example 3], `O=C(CN1CCc2cc(-c3cccc(Cl)c3)ccc2C1C1CCN(C2CCCC2)CC1)Nc1cc(Cl)cc(Cl)c1` (stereo not shown) [Example 5] is lower in Ki: 0.1 to 0.5 µM for the first, 0.001 to 0.1 µM for the second.

`COc1cccc(-c2ccc3c(c2)CCN(CC(=O)Nc2cc(Cl)cc(Cl)c2)C3C2CCN(C3CCCC3)CC2)c1` (stereo not shown) [Example 6] and `O=Cc1cccc(-c2ccc3c(c2)CCN(CC(=O)Nc2cc(Cl)cc(Cl)c2)C3C2CCN(C3CCCC3)CC2)c1` (stereo not shown) [Example 9] fall in the same range of Ki: 0.001 to 0.1 µM for the first, 0.001 to 0.1 µM for the second.

First: O=C(CN1CCc2cc(-c3cc(Cl)ccc3Cl)ccc2C1C1CCN(C2CCCC2)CC1)Nc1cc(Cl)cc(Cl)c1 (stereo not shown) [Example 10]
Second: O=C(CN1CCc2cc(-c3ccc[nH]3)ccc2C1C1CCN(C2CCCC2)CC1)Nc1cc(Cl)cc(Cl)c1 (stereo not shown) [Example 15]
The Ki of the first is lower: 0.001 to 0.1 µM for the first, 0.1 to 0.5 µM for the second.

Compared with `O=C(CN1CCc2cc(-c3ccsc3)ccc2C1C1CCN(C2CCCC2)CC1)Nc1cc(Cl)cc(Cl)c1` (stereo not shown) [Example 13], `O=C(CN1CCc2cc(-c3cccc(C(=O)O)c3)ccc2C1C1CCN(C2CCCC2)CC1)Nc1cc(Cl)cc(Cl)c1` (stereo not shown) [Example 18] is higher in Ki: 0.1 to 0.5 µM for the first, greater than 0.5 µM for the second.

First: O=C(CN1CCc2cc(-c3cccc(-c4ncc[nH]4)c3)ccc2C1C1CCN(C2CCCC2)CC1)Nc1cc(Cl)cc(Cl)c1 (stereo not shown) [Example 14]
Second: O=C(CN1CCc2cc(-c3cccc4cccnc34)ccc2C1C1CCN(C2CCCC2)CC1)Nc1cc(Cl)cc(Cl)c1 (stereo not shown) [Example 20]
The Ki of the first is lower: 0.001 to 0.1 µM for the first, greater than 0.5 µM for the second.

`N#Cc1cccc(-c2ccc3c(c2)CCN(CC(=O)Nc2cc(Cl)cc(Cl)c2)C3C2CCN(Cc3ccccc3)CC2)c1` (stereo not shown) [Example 19] and `N#Cc1cccc(-c2ccc3c(c2)CCN(CC(=O)Nc2cc(Cl)cc(Cl)c2)C3C2CCN(CCCc3ccccc3)CC2)c1` (stereo not shown) [Example 30] fall in the same range of Ki: 0.001 to 0.1 µM for the first, 0.001 to 0.1 µM for the second.

Compared with `CN1CCC(N2CCC(C3c4ccc(-c5cccc(C#N)c5)cc4CCN3CC(=O)Nc3cc(Cl)cc(Cl)c3)CC2)CC1` (stereo not shown) [Example 23], `N#Cc1cccc(-c2ccc3c(c2)CCN(CC(=O)Nc2cc(Cl)cc(Cl)c2)C3C2CCN(C(=O)C3CCCC3)CC2)c1` (stereo not shown) [Example 33] is higher in Ki: 0.001 to 0.1 µM for the first, greater than 0.5 µM for the second. The first binds more tightly here.

First: CC(C)N1CCC(C2c3ccc(-c4cccc(C#N)c4)cc3CCN2CC(=O)Nc2cc(Cl)cc(Cl)c2)CC1 (stereo not shown) [Example 31]
Second: CC(=O)N1CCC(C2c3ccc(-c4cccc(C#N)c4)cc3CCN2CC(=O)Nc2cc(Cl)cc(Cl)c2)CC1 (stereo not shown) [Example 35]
The Ki of the first is lower: 0.001 to 0.1 µM for the first, greater than 0.5 µM for the second.

Compared with `CCN(CC)C(=O)N1CCC(C2c3ccc(-c4cccc(C#N)c4)cc3CCN2CC(=O)Nc2cc(Cl)cc(Cl)c2)CC1` (stereo not shown) [Example 34], `CCS(=O)(=O)N1CCC(C2c3ccc(-c4cccc(C#N)c4)cc3CCN2CC(=O)Nc2cc(Cl)cc(Cl)c2)CC1` (stereo not shown) [Example 39] is higher in Ki: 0.1 to 0.5 µM for the first, greater than 0.5 µM for the second. The first binds more tightly here.

Compared with `CS(=O)(=O)N1CCC(C2c3ccc(-c4cccc(C#N)c4)cc3CCN2CC(=O)Nc2cc(Cl)cc(Cl)c2)CC1` (stereo not shown) [Example 36], `CN(C)S(=O)(=O)N1CCC(C2c3ccc(-c4cccc(C#N)c4)cc3CCN2CC(=O)Nc2cc(Cl)cc(Cl)c2)CC1` (stereo not shown) [Example 37] is lower in Ki: greater than 0.5 µM for the first, 0.1 to 0.5 µM for the second.

First: N#Cc1cccc(-c2ccc3c(c2)CCN(CC(=O)Nc2cc(Cl)cc(Cl)c2)C3C2CCN(Cc3nccs3)CC2)c1 (stereo not shown) [Example 38]
Second: N#Cc1cccc(-c2ccc3c(c2)CCN(C(=O)Nc2cc(Cl)cc(Cl)c2)C3C2CCN(Cc3ccccc3)CC2)c1 (stereo not shown) [Example 40]
The Ki of the first is lower: 0.1 to 0.5 µM for the first, greater than 0.5 µM for the second. The first binds more tightly here.

Compared with `N#Cc1cccc(-c2ccc3c(c2)CCN(C(=O)Nc2ccc(Cl)c(Cl)c2)C3C2CCN(Cc3ccccc3)CC2)c1` (stereo not shown) [Example 41], `N#Cc1cccc(-c2ccc3c(c2)CCN(Cc2nc4cc(Cl)c(Cl)cc4[nH]2)C3C2CCN(Cc3ccccc3)CC2)c1` (stereo not shown) [Example 43] is lower in Ki: greater than 0.5 µM for the first, 0.001 to 0.1 µM for the second.

First: N#Cc1cccc(-c2ccc3c(c2)CCN(Cc2nc4ccccc4[nH]2)C3C2CCN(Cc3ccccc3)CC2)c1 (stereo not shown) [Example 42]
Second: N#Cc1cccc(-c2ccc3c(c2)CCN(Cc2nc4cc(F)c(Cl)cc4[nH]2)C3C2CCN(Cc3ccccc3)CC2)c1 (stereo not shown) [Example 45]
The Ki of the first is higher: 0.1 to 0.5 µM for the first, 0.001 to 0.1 µM for the second.

Compound `CN1CCC(C2c3ccc(-c4cccc(C#N)c4)cc3CCN2Cc2nc3cc(Cl)c(Cl)cc3[nH]2)CC1` (stereo not shown) [Example 44] has a Ki of 0.1 to 0.5 µM.
